Measured values reported in patent US20160333419A1, “GENE SIGNATURES ASSOCIATED WITH SENSITIVITY TO MDM2 INHIBITORS” (DAIICHI SANKYO COMPANY, LIMITED, priority 2014, published 2016).

Columns and labels:
Assay in all cases: OncoPanel cytotoxicity assay
Assay type in all cases: cell-based
MX1 = details: Homo sapiens, 72 hour incubation
Outline: (§1)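 Cells grown in RPMI 1640 with 10% FBS (or a special medium) at 37° C, 5% CO2 were treated 24 hours after seeding for 72 hours with 10 concentrations (3.16-fold dilutions, 0.1% DMSO final). Nuclei were dye-stained and imaged; IC50 was fit from percent of control relative cell count.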

RL95-2 = details: Homo sapiens, 72 hour incubation
Outline: as §1

SK-N-AS = details: Homo sapiens, 72 hour incubation
Outline: as §1

L-428 = details: Homo sapiens, 72 hour incubation
Outline: as §1

SaOS2 = details: Homo sapiens, SAOS-2, 72 hour incubation
Outline: as §1

JAR = details: Homo sapiens, 72 hour incubation
Outline: as §1

NCI-H295R = details: Homo sapiens, 72 hour incubation
Outline: as §1

K562 = details: Homo sapiens, 72 hour incubation
Outline: as §1

AU565 = details: Homo sapiens, 72 hour incubation
Outline: as §1

Hs 695T = details: Homo sapiens, 72 hour incubation
Outline: as §1

HCT-8 = details: Homo sapiens, 72 hour incubation
Outline: as §1

SCC-25 = details: Homo sapiens, 72 hour incubation
Outline: as §1

NCI-H292 = details: Homo sapiens, 72 hour incubation
Outline: as §1

A7 = details: Homo sapiens, 72 hour incubation
Outline: as §1

Mia PaCa-2 = details: Homo sapiens, 72 hour incubation
Outline: as §1

AGS = details: Homo sapiens, 72 hour incubation
Outline: as §1

SK-MEL-28 = details: Homo sapiens, 72 hour incubation
Outline: as §1

BxPC-3 = details: Homo sapiens, 72 hour incubation
Outline: as §1

DOHH-2 = details: Homo sapiens, 72 hour incubation
Outline: as §1

BV-173 = details: Homo sapiens, 72 hour incubation
Outline: as §1

MG-63 = details: Homo sapiens, 72 hour incubation
Outline: as §1

CGTH-W-1 = details: Homo sapiens, 72 hour incubation
Outline: as §1

647-V = details: Homo sapiens, 72 hour incubation
Outline: as §1

LS1034 = details: Homo sapiens, LS-1034, 72 hour incubation
Outline: as §1

SK-LMS-1 = details: Homo sapiens, 72 hour incubation
Outline: as §1

RPMI 6666 = details: Homo sapiens, 72 hour incubation
Outline: as §1

DMS53 = details: Homo sapiens, DMS-53, 72 hour incubation
Outline: as §1

SH-4 = details: Homo sapiens, 72 hour incubation
Outline: as §1

SCC-4 = details: Homo sapiens, 72 hour incubation
Outline: as §1

G-402 = details: Homo sapiens, 72 hour incubation
Outline: as §1

Jurkat = details: Homo sapiens, 72 hour incubation
Outline: as §1

T98G = details: Homo sapiens, 72 hour incubation
Outline: as §1

CRO-AP2 = details: Homo sapiens, 72 hour incubation
Outline: as §1

Ramos (RA 1) = details: Homo sapiens, 72 hour incubation
Outline: as §1

HT1376 = details: Homo sapiens, HT-1376, 72 hour incubation
Outline: as §1

SU.86.86 = details: Homo sapiens, 72 hour incubation
Outline: as §1

MDA MB 468 = details: Homo sapiens, 72 hour incubation
Outline: as §1

C-33A = details: Homo sapiens, 72 hour incubation
Outline: as §1

SW1783 = details: Homo sapiens, 72 hour incubation
Outline: as §1

U-138MG = details: Homo sapiens, U138-MG, 72 hour incubation
Outline: as §1

Row | Compound | IC50 (MX1) [µM] | IC50 (RL95-2) [µM] | IC50 (SK-N-AS) [µM] | IC50 (L-428) [µM] | IC50 (SaOS2) [µM] | IC50 (JAR) [µM] | IC50 (NCI-H295R) [µM] | IC50 (K562) [µM] | IC50 (AU565) [µM] | IC50 (Hs 695T) [µM] | IC50 (HCT-8) [µM] | IC50 (SCC-25) [µM] | IC50 (NCI-H292) [µM] | IC50 (A7) [µM] | IC50 (Mia PaCa-2) [µM] | IC50 (AGS) [µM] | IC50 (SK-MEL-28) [µM] | IC50 (BxPC-3) [µM] | IC50 (DOHH-2) [µM] | IC50 (BV-173) [µM] | further results
1 | CC[C@@H]1CNC2(CC2)CN1C(=O)[C@@H]1C[C@@H](F)CN1C(=O)C1=C(C(C)C)N2C(=N[C@@](C)(c3ccc(Cl)nc3)[C@H]2c2ccc(Cl)c(F)c2)S1 [Compound A, [(5R,6S)-5-(4-Chloro-3-fluorophenyl)-6-(6-chloropyridin-3-yl)-6-methyl-3-(propan-2-yl)-5,6-dihydroimidazo[2,1-b][1,3]thiazol-2-yl][(2S,4R)-2-{[(6R)-6-ethyl-4,7-diazaspiro[2.5]oct-7-yl]carbonyl}-4-fluoropyrrolidin-1-yl]methanone] | 39 | 13.8 | > 40 | > 40 | > 40 | 0.549 | > 40 | > 40 | 23.7 | 1.28 | 0.506 | > 40 | 0.479 | > 40 | > 40 | 0.139 | > 40 | > 40 | 0.123 | 0.601 | IC50 (MG-63): > 40 µM; IC50 (CGTH-W-1): > 40 µM; IC50 (647-V): > 40 µM; IC50 (LS1034): > 40 µM; IC50 (SK-LMS-1): > 40 µM; IC50 (RPMI 6666): 1.7 µM; IC50 (DMS53): 38.4 µM; IC50 (SH-4): 0.59 µM; IC50 (SCC-4): > 40 µM; IC50 (G-402): 0.568 µM; IC50 (Jurkat): > 40 µM; IC50 (T98G): > 40 µM; IC50 (CRO-AP2): 0.204 µM; IC50 (Ramos (RA 1)): > 40 µM; IC50 (HT1376): 38.9 µM; IC50 (SU.86.86): > 40 µM; IC50 (MDA MB 468): 36.2 µM; IC50 (C-33A): > 40 µM; IC50 (SW1783): > 40 µM; IC50 (U-138MG): > 40 µM
2 | CC1(C)CCC2(CC1)N[C@@H](C(=O)N[C@@H]1CC[C@@H](C(N)=O)OC1)[C@H](c1ccnc(Cl)c1F)[C@]21C(=O)Nc2cc(Cl)ccc21 [Compound B, (3′R,4′S,5′R)—N-[(3R,6S)-6-carbamoyltetrahydro-2H-pyran-3-yl]-6″-chloro-4′-(2-chloro-3-fluoropyridin-4-yl)-4,4-dimethyl-2″-oxo-1″,2″-dihydrodispiro[cyclohexane-1,2′-pyrrolidine-3′,3″-indole]-5′-carboxamide] | 9.16 | 3.72 | 8.29 | > 10 | > 10 | 0.0861 | > 10 | > 10 | > 10 | 0.174 | 0.0516 | 9.86 | 0.0347 | 3.59 | 7.22 | 0.0116 | > 10 | > 10 | 0.0288 | 0.0873 | IC50 (MG-63): > 10 µM; IC50 (CGTH-W-1): 8.04 µM; IC50 (647-V): > 10 µM; IC50 (LS1034): > 10 µM; IC50 (SK-LMS-1): > 10 µM; IC50 (RPMI 6666): 0.0793 µM; IC50 (DMS53): > 10 µM; IC50 (SH-4): 0.116 µM; IC50 (SCC-4): > 10 µM; IC50 (G-402): 0.0261 µM; IC50 (Jurkat): > 10 µM; IC50 (T98G): > 10 µM; IC50 (CRO-AP2): 0.0191 µM; IC50 (Ramos (RA 1)): 8.66 µM; IC50 (HT1376): > 10 µM; IC50 (SU.86.86): 8.86 µM; IC50 (MDA MB 468): 8.12 µM; IC50 (C-33A): 5.49 µM; IC50 (SW1783): > 10 µM; IC50 (U-138MG): > 10 µM
